This passage reports tumor growth inhibition and IC50 results from patent publication US9193719B2, “1,2,4-triazol-5-ones and analogs exhibiting anti-cancer and anti-proliferative activities” (Deciphera Pharmaceuticals, LLC, priority 2013, dated 2015).

The test system of assay [1] is MDA-MB-231-luc-D3H2LN human breast carcinoma xenograft. The assay is described as follows: MDA-MB-231 xenograft study. As to conditions: orally dosed at 15 mpk twice daily. In kind it is in vivo, mouse. On the procedure:
MDA-MB-231 Xenograft Study
To evaluate the in vivo anti-cancer activity compounds of Formula I, a MDA-MB-231-luc-D3H2LN human breast carcinoma xenograft was employed. Briefly, MDA-MB-231-luc-D3H2LN cells were obtained from Xenogen and expanded in Minimal Essential Media (MEM) with EBSS which was modified with 1% L-glutamine and supplemented with 10% FBS, 1% PSG, 1% non-essential amino acids, and 1% sodium pyruvate. The growth environment was maintained in an incubator with a 5% CO2 atmosphere at 37° C. Cells were harvested and re-suspended using 50% serum-free media and 50% Matrigel® to generate a stock concentration of 5×10^6 cells/mL.
Six to 7 week old female C.B-17/IcrHsd-PrkdcscidLystbg mice were injected with 200 μL of cell suspension subcutaneously, just below the right axilla. All procedures carried out in this experiment were conducted in compliance with all the laws, regulations and guidelines of the National Institutes of Health (NIH). Treatment began when the mean tumor burden is approximately 150 mg. All mice were dosed with test compound by oral gavage. Body weights and tumor measurements were recorded three times weekly. […] Images were analyzed using Living Image (Xenogen, Alameda, Calif.) software. […]

Assay [2] addresses T1, unphosphorylated c-KIT kinase (uKIT, Seq. ID no. 2) (Homo sapiens, UniProt P10721).
T1 construct: uKit with N-terminal GST fusion used for screening
As to the kind of experiment: uKit kinase enzymatic assay (pyruvate kinase/lactate dehydrogenase coupled). As to conditions: ATP 2000 μM, rate 3 to 4 h. It counts as biochemical. In short, it runs like this: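 Coupled pyruvate kinase/lactate dehydrogenase readout of ADP, following NADH oxidation at A340 continuously for 4 h at 30 °C. Mix: 12 nM unphosphorylated KIT, 1 mg/mL polyE4Y, 2000 μM ATP, 10 mM MgCl2, 90 mM Tris pH 7.5, 0.2% octyl-glucoside, 1% DMSO. IC50 from % inhibition of rates at 3–4 h.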

Assay [3] deals with T2, unphosphorylated PDGFRβ kinase (uPDGFRβ, Seq. ID No. 3) (Homo sapiens, UniProt P09619).
T2 construct: purchased DeCode
The assay is described as follows: uPDGFRβ kinase enzymatic assay (pyruvate kinase/lactate dehydrogenase coupled). It counts as biochemical. As to conditions: ATP 500 μM, rate 1.5 to 2.5 h. In short, it runs like this:
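Unphosphorylated PDGFRβ (15.7 nM) with 500 μM ATP and poly E4Y (2.5 mg/mL) in Tris pH 7.5, 0.2% octyl-glucoside, 1% DMSO; ADP coupled via PK/LDH to NADH oxidation at A340, read continuously 4 h at 30 °C. Rates from 1.5–2.5 h window versus no-compound control gave IC50.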

T1 sequence (P10721 with tags, fused parts or gaps): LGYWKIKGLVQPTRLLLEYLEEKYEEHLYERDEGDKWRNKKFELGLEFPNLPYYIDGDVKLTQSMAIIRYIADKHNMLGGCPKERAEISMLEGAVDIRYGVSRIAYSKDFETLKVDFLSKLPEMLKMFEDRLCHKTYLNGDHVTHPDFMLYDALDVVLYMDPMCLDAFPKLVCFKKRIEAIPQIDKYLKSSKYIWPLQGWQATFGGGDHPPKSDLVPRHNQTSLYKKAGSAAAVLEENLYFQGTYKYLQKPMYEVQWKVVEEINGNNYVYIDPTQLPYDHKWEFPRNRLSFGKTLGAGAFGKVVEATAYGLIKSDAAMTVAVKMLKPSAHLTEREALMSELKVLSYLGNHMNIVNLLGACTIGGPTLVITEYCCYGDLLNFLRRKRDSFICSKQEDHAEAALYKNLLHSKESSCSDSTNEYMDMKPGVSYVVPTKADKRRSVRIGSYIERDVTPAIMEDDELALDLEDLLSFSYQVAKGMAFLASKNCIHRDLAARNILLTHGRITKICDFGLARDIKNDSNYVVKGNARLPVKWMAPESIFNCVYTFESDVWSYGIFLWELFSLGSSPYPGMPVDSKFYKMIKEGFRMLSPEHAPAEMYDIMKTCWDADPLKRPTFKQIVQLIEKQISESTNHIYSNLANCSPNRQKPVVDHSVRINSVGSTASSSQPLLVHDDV
T2 sequence (P09619 557-1106): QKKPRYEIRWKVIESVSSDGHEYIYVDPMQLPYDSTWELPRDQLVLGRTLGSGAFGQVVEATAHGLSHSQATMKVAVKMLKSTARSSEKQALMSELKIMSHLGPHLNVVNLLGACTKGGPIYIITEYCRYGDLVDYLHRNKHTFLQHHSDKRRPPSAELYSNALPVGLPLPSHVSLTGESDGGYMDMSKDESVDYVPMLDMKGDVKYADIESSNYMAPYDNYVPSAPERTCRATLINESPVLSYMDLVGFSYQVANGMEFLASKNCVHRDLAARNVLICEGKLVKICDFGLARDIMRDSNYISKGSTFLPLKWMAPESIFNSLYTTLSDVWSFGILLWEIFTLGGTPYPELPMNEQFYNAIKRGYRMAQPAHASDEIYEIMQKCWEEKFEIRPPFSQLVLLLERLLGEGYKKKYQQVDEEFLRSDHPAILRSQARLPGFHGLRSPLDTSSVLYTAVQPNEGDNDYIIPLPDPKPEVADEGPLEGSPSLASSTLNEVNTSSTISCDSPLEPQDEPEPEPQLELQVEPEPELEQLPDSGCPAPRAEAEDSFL

The IC50 is the midpoint of a concentration-inhibition curve. Compound `Cc1nc(-n2nc(C(C)(C)C)[nH]c2=O)ccc1Oc1ccnc(-c2cnn(C)c2)c1` [Example 7, 3-(tert-butyl)-1-(6-methyl-5-((2-(1-methyl-1H-pyrazol-4-yl)pyridin-4-yl)oxy)pyridin-2-yl)-1H-1,2,4-triazol-5(4H)-one] displayed a tumor growth inhibition in assay [1] of 39%. Also, the IC50 is 100 to 1000 nM in assay [2] and over 1000 nM in assay [3].

As to `Cc1nc(-n2nc(C3CCC3)[nH]c2=O)ccc1Oc1ccnc(-c2cnn(C)c2)c1` [Example 37, 3-cyclobutyl-1-(6-methyl-5-((2-(1-methyl-1H-pyrazol-4-yl)pyridin-4-yl)oxy)pyridin-2-yl)-1H-1,2,4-triazol-5(4H)-one], the 50% inhibitory concentration (IC50) in assay [2] and in assay [3] was 100 to 1000 nM throughout.
